Measurements as given in US8916573B2, “Quinazoline-2,4-dione derivatives” (Actelion Pharmaceuticals Ltd., priority 2011, dated 2014).
Converted amounts (≈) assume the structure as drawn.

System: S. aureus 29213
Test: Bacterial growth minimal inhibitory concentrations (microdilution, cation-adjusted Mueller-Hinton Broth, CLSI M7-A7)
Format: cell-based
Conditions: Staphylococcus aureus, 29213; microdilution in cation-adjusted Mueller-Hinton Broth
Method: Bacterial Growth Minimal Inhibitory Concentrations: Minimal inhibitory concentrations (MICs; mg/l) were determined in cation-adjusted MuellerHinton Broth by a microdilution method following the description given in “Methods for Dilution Antimicrobial Susceptibility Tests for Bacteria that Grow Aerobically”, Approved standard, 7th ed., Clinical and Laboratory Standards Institute (CLSI) Document M7-A7, Wayne, Pa., USA, 2006. Typical antibacterial test results are given in Table 1 hereafter (MIC in mg/l).

Structure (SMILES)	MIC
O=C1CSc2ccc(N3C[C@H](CCCn4c(=O)[nH]c5cccc(Cl)c5c4=O)OC3=O)cc2N1 [Example 18, 5-chloro-3-{3-[(S)-2-oxo-3-(3-oxo-3,4-dihydro-2H-benzo[1,4]thiazin-6-yl)-oxazolidin-5-yl]-propyl}-1H-quinazoline-2,4-dione]	≤ 0.016 µg/mL
O=C1CSc2ccc(N3C[C@H](CCCn4c(=O)[nH]c5cccc(Cl)c5c4=O)OC3=O)nc2N1 [Example 19, 5-chloro-3-{3-[(S)-2-oxo-3-(3-oxo-3,4-dihydro-2H-pyrido[3,2-b][1,4]thiazin-6-yl)-oxazolidin-5-yl]-propyl}-1H-quinazoline-2,4-dione]	≤ 0.016 µg/mL
O=C1COc2ccc(N3C[C@@H](CCCn4c(=O)[nH]c5cccc(Cl)c5c4=O)OC3=O)nc2N1 [Example 20, 5-chloro-3-{3-[(R)-2-oxo-3-(3-oxo-3,4-dihydro-2H-pyrido[3,2-b][1,4]oxazin-6-yl)-oxazolidin-5-yl]-propyl}-1H-quinazoline-2,4-dione]	0.125 µg/mL (≈ 0.265 µM)
O=C1CSc2ccc(N3C[C@@H](CCCn4c(=O)[nH]c5c(Cl)cccc5c4=O)OC3=O)cc2N1 [Example 21, 8-chloro-3-{3-[(R)-2-oxo-3-(3-oxo-3,4-dihydro-2H-benzo[1,4]thiazin-6-yl)-oxazolidin-5-yl]-propyl}-1H-quinazoline-2,4-dione]	≤ 0.016 µg/mL
O=C1CSc2ccc(N3C[C@H](CCCn4c(=O)[nH]c5c(Cl)cccc5c4=O)OC3=O)nc2N1 [Example 22, 8-chloro-3-{3-[(S)-2-oxo-3-(3-oxo-3,4-dihydro-2H-pyrido[3,2-b][1,4]thiazin-6-yl)-oxazolidin-5-yl]-propyl}-1H-quinazoline-2,4-dione]	≤ 0.016 µg/mL
O=C1COc2ccc(N3C[C@@H](CCCn4c(=O)[nH]c5c(Cl)cccc5c4=O)OC3=O)nc2N1 [Example 23, 8-chloro-3-{3-[(R)-2-oxo-3-(3-oxo-3,4-dihydro-2H-pyrido[3,2-b][1,4]oxazin-6-yl)-oxazolidin-5-yl]-propyl}-1H-quinazoline-2,4-dione]	0.031 µg/mL (≈ 0.0657 µM)
O=C1COc2ccc(N3C[C@H](CCCn4c(=O)[nH]c5c(Cl)cccc5c4=O)OC3=O)nc2N1 [Example 24, 8-chloro-3-{3-[(S)-2-oxo-3-(3-oxo-3,4-dihydro-2H-pyrido[3,2-b][1,4]oxazin-6-yl)-oxazolidin-5-yl]-propyl}-1H-quinazoline-2,4-dione]	≤ 0.016 µg/mL
O=C1CSc2ccc(N3C[C@@H](CCCn4c(=O)[nH]c5ccc(Cl)cc5c4=O)OC3=O)cc2N1 [Example 25, 6-chloro-3-{3-[(R)-2-oxo-3-(3-oxo-3,4-dihydro-2H-benzo[1,4]-thiazin-6-yl)-oxazolidin-5-yl]-propyl}-1H-quinazoline-2,4-dione]	0.063 µg/mL (≈ 0.129 µM)
O=C1CSc2ccc(N3C[C@@H](CCCn4c(=O)[nH]c5ccc(F)cc5c4=O)OC3=O)cc2N1 [Example 26, 6-fluoro-3-{3-[(R)-2-oxo-3-(3-oxo-3,4-dihydro-2H-benzo[1,4]thiazin-6-yl)-oxazolidin-5-yl]-propyl}-1H-quinazoline-2,4-dione]	0.031 µg/mL (≈ 0.0659 µM)
O=C1CSc2ccc(N3C[C@@H](CCCn4c(=O)[nH]c5cc(Cl)ccc5c4=O)OC3=O)cc2N1 [Example 27, 7-chloro-3-{3-[(R)-2-oxo-3-(3-oxo-3,4-dihydro-2H-benzo[1,4]-thiazin-6-yl)-oxazolidin-5-yl]-propyl}-1H-quinazoline-2,4-dione]	0.063 µg/mL (≈ 0.129 µM)
O=C1CSc2ccc(N3C[C@@H](CCCn4c(=O)[nH]c5cc(F)ccc5c4=O)OC3=O)cc2N1 [Example 28, 7-fluoro-3-{3-[(R)-2-oxo-3-(3-oxo-3,4-dihydro-2H-benzo[1,4]thiazin-6-yl)-oxazolidin-5-yl]-propyl}-1H-quinazoline-2,4-dione]	0.063 µg/mL (≈ 0.134 µM)
O=C1CSc2ccc(N3C[C@H](CCCn4c(=O)[nH]c5c(Cl)cccc5c4=O)OC3=O)cc2N1 [Example 29, 8-chloro-3-{3-[(S)-2-oxo-3-(3-oxo-3,4-dihydro-2H-benzo[1,4]-thiazin-6-yl)-oxazolidin-5-yl]-propyl}-1H-quinazoline-2,4-dione]	≤ 0.016 µg/mL
Cn1c(=O)n(CCNCC[C@@H]2CN(c3ccc4c(c3)NC(=O)CS4)C(=O)O2)c(=O)c2cccc(Cl)c21 [Example 30, 8-chloro-1-methyl-3-(2-{2-[(R)-2-oxo-3-(3-oxo-3,4-dihydro-2H-benzo[1,4]thiazin-6-yl)-oxazolidin-5-yl]-ethylamino}-ethyl)-1H-quinazoline-2,4-dione]	0.125 µg/mL (≈ 0.236 µM)
Cn1c(=O)n(CCC[C@H]2CN(c3ccc4c(c3)NC(=O)CS4)C(=O)O2)c(=O)c2cccc(Cl)c21 [Example 31, 8-chloro-1-methyl-3-{3-[(S)-2-oxo-3-(3-oxo-3,4-dihydro-2H-benzo[1,4]thiazin-6-yl)-oxazolidin-5-yl]-propyl}-1H-quinazoline-2,4-dione]	≤ 0.016 µg/mL
O=C1CSc2ccc(N3C[C@@H](CCCn4c(=O)[nH]c5c(F)cccc5c4=O)OC3=O)cc2N1 [Example 32, 8-fluoro-3-{3-[(R)-2-oxo-3-(3-oxo-3,4-dihydro-2H-benzo[1,4]thiazin-6-yl)-oxazolidin-5-yl]-propyl}-1H-quinazoline-2,4-dione]	0.031 µg/mL (≈ 0.0659 µM)
COc1cccc2[nH]c(=O)n(CCC[C@@H]3CN(c4ccc5c(c4)NC(=O)CS5)C(=O)O3)c(=O)c12 [Example 33, 5-methoxy-3-{3-[(R)-2-oxo-3-(3-oxo-3,4-dihydro-2H-benzo[1,4]-thiazin-6-yl)-oxazolidin-5-yl]-propyl}-1H-quinazoline-2,4-dione]	0.125 µg/mL (≈ 0.259 µM)
COc1ccc2[nH]c(=O)n(CCC[C@@H]3CN(c4ccc5c(c4)NC(=O)CS5)C(=O)O3)c(=O)c2c1 [Example 34, 6-methoxy-3-{3-[(R)-2-oxo-3-(3-oxo-3,4-dihydro-2H-benzo[1,4]-thiazin-6-yl)-oxazolidin-5-yl]-propyl}-1H-quinazoline-2,4-dione]	0.063 µg/mL (≈ 0.131 µM)
COc1ccc2c(=O)n(CCC[C@H]3CN(c4ccc5c(c4)NC(=O)CS5)C(=O)O3)c(=O)[nH]c2c1 [Example 35, 7-methoxy-3-{3-[(S)-2-oxo-3-(3-oxo-3,4-dihydro-2H-benzo[1,4]-thiazin-6-yl)-oxazolidin-5-yl]-propyl}-1H-quinazoline-2,4-dione]	0.125 µg/mL (≈ 0.259 µM)
COc1cccc2c(=O)n(CCC[C@@H]3CN(c4ccc5c(c4)NC(=O)CS5)C(=O)O3)c(=O)[nH]c12 [Example 36, 8-methoxy-3-{3-[(R)-2-oxo-3-(3-oxo-3,4-dihydro-2H-benzo[1,4]-thiazin-6-yl)-oxazolidin-5-yl]-propyl}-1H-quinazoline-2,4-dione]	0.031 µg/mL (≈ 0.0642 µM)
O=C1CSc2ccc(N3C[C@H](CCCn4c(=O)[nH]c5ccc(N6CCCC6)cc5c4=O)OC3=O)cc2N1 [Example 37, 3-{3-[(S)-2-oxo-3-(3-oxo-3,4-dihydro-2H-benzo[1,4]-thiazin-6-yl)-oxazolidin-5-yl]-propyl}-6-pyrrolidin-1-yl-1H-quinazoline-2,4-dione]	0.5 µg/mL (≈ 0.959 µM)
O=C1CSc2ccc(N3C[C@@H](CCCn4c(=O)[nH]c5cc(F)c(F)cc5c4=O)OC3=O)cc2N1 [Example 38, 6,7-difluoro-3-{3-[(R)-2-oxo-3-(3-oxo-3,4-dihydro-2H-benzo[1,4]thiazin-6-yl)-oxazolidin-5-yl]-propyl}-1H-quinazoline-2,4-dione]	0.063 µg/mL (≈ 0.129 µM)
COc1cc2[nH]c(=O)n(CCC[C@@H]3CN(c4ccc5c(c4)NC(=O)CS5)C(=O)O3)c(=O)c2cc1OC [Example 39, 6,7-dimethoxy-3-{3-[(R)-2-oxo-3-(3-oxo-3,4-dihydro-2H-benzo[1,4]thiazin-6-yl)-oxazolidin-5-yl]-propyl}-1H-quinazoline-2,4-dione]	0.25 µg/mL (≈ 0.488 µM)
O=C1CSc2ccc(N3C[C@H](CCCn4c(=O)[nH]c5c(Cl)ccc(Cl)c5c4=O)OC3=O)cc2N1 [Example 40, 5,8-dichloro-3-{3-[(S)-2-oxo-3-(3-oxo-3,4-dihydro-2H-benzo[1,4]thiazin-6-yl)-oxazolidin-5-yl]-propyl}-1H-quinazoline-2,4-dione]	≤ 0.016 µg/mL
O=C1CSc2ccc(N3C[C@@H](CCCn4c(=O)c5cccc6c5n(c4=O)CCC6)OC3=O)cc2N1 [Example 41, 2-{3-[(R)-2-oxo-3-(3-oxo-3,4-dihydro-2H-benzo[1,4]thiazin-6-yl)-oxazolidin-5-yl]-propyl}-6,7-dihydro-5H-pyrido[3,2,1-ij]quinazoline-1,3-dione]	0.25 µg/mL (≈ 0.508 µM)
O=C1CSc2ccc(N3C[C@H](CCCn4c(=O)[nH]c5cc6ccccc6cc5c4=O)OC3=O)cc2N1 [Example 42, 3-{3-[(S)-2-oxo-3-(3-oxo-3,4-dihydro-2H-benzo[1,4]-thiazin-6-yl)-oxazolidin-5-yl]-propyl}-1H-benzo[g]quinazoline-2,4-dione]	0.031 µg/mL (≈ 0.0617 µM)
COc1c(F)c(F)cc2c(=O)n(CCC[C@H]3CN(c4ccc5c(c4)NC(=O)CS5)C(=O)O3)c(=O)n(C3CC3)c12 [Example 43, 1-cyclopropyl-6,7-difluoro-8-methoxy-3-{3-[(S)-2-oxo-3-(3-oxo-3,4-dihydro-2H-benzo[1,4]thiazin-6-yl)-oxazolidin-5-yl]-propyl}-1H-quinazoline-2,4-dione]	≤ 0.016 µg/mL
O=C1CSc2ccc(N3C[C@H](CCCn4c(=O)c5cccc6c5n(c4=O)CCC6)OC3=O)cc2N1 [Example 44, 2-{3-[(S)-2-oxo-3-(3-oxo-3,4-dihydro-2H-benzo[1,4]thiazin-6-yl)-oxazolidin-5-yl]-propyl}-6,7-dihydro-5H-pyrido[3,2,1-ij]quinazoline-1,3-dione]	≤ 0.016 µg/mL
O=C1COc2ccc(N3C[C@H](CCCn4c(=O)c5cccc6c5n(c4=O)CCC6)OC3=O)nc2N1 [Example 45, 2-{3-[(S)-2-oxo-3-(3-oxo-3,4-dihydro-2H-pyrido[3,2-b][1,4]oxazin-6-yl)-oxazolidin-5-yl]-propyl}-6,7-dihydro-5H-pyrido[3,2,1-ij]quinazoline-1,3-dione]	≤ 0.016 µg/mL
Cn1c(=O)n(CCC[C@@H]2CN(c3ccc4c(c3)NC(=O)CS4)C(=O)O2)c(=O)c2ccc(Br)cc21 [Example 46, 7-bromo-1-methyl-3-{3-[(R)-2-oxo-3-(3-oxo-3,4-dihydro-2H-benzo[1,4]thiazin-6-yl)-oxazolidin-5-yl]-propyl}-1H-quinazoline-2,4-dione]	≤ 0.016 µg/mL
